In publication doi:10.1101/2023.01.30.526200v1, “The virus-encoded ion channel “viroporin” activity of the agnoprotein is required for BK Polyomavirus release from infected kidney cells” (biorxiv, 2023):

Key:
[1] = target: T1, BKPyV agnoprotein (recombinant 10xHis BK agnoprotein) (Betapolyomavirus hominis, UniProt P03085); test: carboxyfluorescein release from liposomes, endpoint fluorescence; format: biochemical; conditions: recombinant protein pre-incubated with compound 10 min at room temperature; PA/PC liposomes, HBS pH 7.4; compound concentration not in text
T1 construct: full-length, N-terminal 10xHis tag kept (pET19b, codon optimised), expressed in E. coli, purified by Ni-NTA, cation exchange and C4, dissolved in DMSO; SDS-resistant oligomers (copy number undefined); reconstituted in PA/PC liposomes

[2] = target: T1, BKPyV agnoprotein (recombinant 10xHis BK agnoprotein); test: as above; format: biochemical; conditions: recombinant protein pre-incubated with compound 10 min at room temperature; PA/PC liposomes, HBS pH 7.4; 400 uM rimantadine

T1 sequence (P03085 whole entry): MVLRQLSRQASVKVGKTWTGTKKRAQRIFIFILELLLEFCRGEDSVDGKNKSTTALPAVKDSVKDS

## CCCCCCCCCN1C[C@H](O)[C@@H](O)[C@H](O)[C@H]1CO [NN-DNJ]
[1]
  reduction in CF release: Addition of NN-DNJ also led to a significant reduction in agnoprotein mediated CF release

## CC(N)C12CC3CC(CC(C3)C1)C2 (centres unmarked) [rimantadine]
[2]
  % reduction in channel activity at 400 uM: ~ 50%
